Values quoted from earlier work, collected in patent US6500456B1 (priority 1997, dated 2002).

Conditions: at 20° C., pure nitroglycerin

O=[N+]([O-])OCC(CO[N+](=O)[O-])O[N+](=O)[O-] [nitroglycerin]
Vapor pressure: about 0.00026 mm
